From US7381572B2, “Reagents and procedures for multi-label high-specificity labeling” (Rutgers, The State University of New Jersey, priority 2004, dated 2008)
Like-named read-outs stand apart in the source and are kept apart here. No end group written: not given here.

Experiments:
[1] = test system: tetracysteine peptide; conditions: initially non-fluorescent; Griffin, et al. Science (1998); cited from earlier work
[2] = Multicolor, multisite labeling, pairs of peptides: Cy5 detection; type: binding; conditions: pair of G1^0 with P3, P4, P5 or P6; both probes present; 5, 10, 20 mM DTT
Protocol: (§1) Multicolor, multisite labeling was assessed in electrophoretic-mobility-shift assays. Pairs of tetracysteine-tagged peptides—one neutral tetracysteine-tagged peptide, and one negatively-charged tetracysteine-tagged peptide (the charge difference resulting in different electrophoretic mobilities on the gel, thus allowing the two tetracysteine-tagged peptides to be distinguished)—were analyzed. For each combination of probe and pair of tetracysteine-tagged peptides, three reactions were performed in parallel: one reaction at 5 mM DTT, one reaction at 10 mM DTT, and one reaction at 20 mM DTT. […] DTT (1 μl of 50 mM DTT for reactions at 5 mM DTT, 1 μl of 100 mM DTT for reactions at 10 mM DTT, and 1 μl of 200 mM DTT for reactions at 20 mM DTT) was added, and samples were incubated 30 min at 25° C.

[3] = Multicolor, multisite labeling, pairs of peptides: FlAsH detection; type: binding; conditions: pair of G1^0 with the named peptide; both probes present; 5, 10, 20 mM DTT
Protocol: as §1

[4] = type: binding; conditions: excitation 488 nm, emission ≧680 nm
[5] = Tag-conjugate interaction found by the inventors: Cy5 derivatives; type: binding
[6] = Tag-conjugate interaction found by the inventors: Cy3 derivatives; type: binding
[7] = Tag-conjugate binding found by the inventors: Cy3 and Cy5 bis-propionamido-phenylarsine derivatives
[8] = Tag-conjugate interaction found by the inventors: FlAsH-EDT2; type: binding
[9] = Multicolor, multisite labeling of doubly-tetracysteine-tagged proteins (SARPs), crude lysate; type: binding, Escherichia coli; conditions: for FlAsH-Cy5 FRET within the resulting complex (SARP detection): excitation 488 nm, emission ≧680 nm; for co-labeling by FlAsH and Cy5-(SO3)2-(PAEDT)2: ~1 μM doubly-tagged protein
Protocol: Multicolor, multisite labeling of doubly-tetracysteine-tagged proteins—yielding self-assembled relay probes, SARPs—was assessed in electrophoretic-mobility-shift assays. DTT (1 μl of 125 mM solution) was added to 23 μl crude lysate containing doubly-tetracysteine-tagged protein (˜1 μM; Example 14.2), and samples were incubated 30 min at 25° C. Cy5-(SO3)2-(PAEDT)2 (Example 9.2; 0.5 μl of 1 mM solution in DMF) was added, and samples were incubated 20 min at 25° C. FlAsH (Griffin, et al. (2000) Methods Enzmol. 327, 565-578; 0.5 μl of 0.1 mM solution in DMF) was then added, and samples were further incubated 5 min at 25° C.

O=C(O)c1ccccc1-c1c2ccc(=O)c([As]3SCCS3)c-2oc2c([As]3SCCS3)c(O)ccc12 [FlAsH-EDT2, 4′,5′-bis (1,3,2-dithioarsolan-2-yl)fluorescein]
fluorescence on addition of a tetracysteine peptide to displace the EDT [1]: develops bright fluorescence

Ac-EWNCCPPPCCN—CONH2 (Ac-EWNCCPPPCCN-NH2; cysteine pairing not given here) [P3]
labeling by Cy5-(SO3)2-(PAEDT)2 in a pair of peptides [2]: labeled
FlAsH labeling as % of the level of labeling of G1^0 [3]: < 10%

Ac-EWNCCPPPPCCN-AEAAAKEAAAKEAAAKEAAAKA-NCCGCCN—CONH2 [SARP-P4/G1-HL4X]
FlAsH-Cy5 FRET within the resulting complex (SARP detection) [4]: participated in FlAsH-Cy5 FRET

Ac-EWNCCPPPPCCN—CONH2 (Ac-EWNCCPPPPCCN-NH2; cysteine pairing not given here) [P4]
labeling by Cy5-(SO3)2-(PAEDT)2 in a pair of peptides [2]: labeled
FlAsH labeling as % of the level of labeling of G1^0 [3]: < 10%

Ac-EWNCCPPPPCCN—PPPPPPPPPPPP—NCCGCCN—CONH2 [SARP-P4/G1-PP12]
FlAsH-Cy5 FRET within the resulting complex (SARP detection) [4]: participated in FlAsH-Cy5 FRET

Ac-EWNCCPPPPCCN—PPPPPPPPP—NCCGCCN—CONH2 [SARP-P4/G1-PP9]
FlAsH-Cy5 FRET within the resulting complex (SARP detection) [4]: participated in FlAsH-Cy5 FRET

Ac-EWNCCPPPPPCCN—CONH2 (Ac-EWNCCPPPPPCCN-NH2; cysteine pairing not given here) [P5]
labeling by Cy5-(SO3)2-(PAEDT)2 in a pair of peptides [2]: labeled
FlAsH labeling as % of the level of labeling of G1^0 [3]: < 10%

Ac-EWNCCPPPPPPCCN—CONH2 (Ac-EWNCCPPPPPPCCN-NH2; cysteine pairing not given here) [P6]
labeling by Cy5-(SO3)2-(PAEDT)2 in a pair of peptides [2]: labeled
FlAsH labeling as % of the level of labeling of G1^0 [3]: < 10%

CCGPCC: tetracysteine peptide tag of the general form CCXXCC (target sequence)
interaction of tag with Cy5 derivatives of conjugates according to Formula (I) [5]: not interact, or interact less tightly
interaction of tag with Cy3 derivatives of conjugates according to Formula (I) [6]: interact tightly

CCPGPCC
binding of tag to Cy3 and Cy5 (bis-sulfonato) bis-propionamido-phenylarsine derivatives [7]: bind
interaction of tag with FlAsH-EDT2 [8]: not interact substantially

CCPPPCC (target sequence) [tetracysteine peptide tag of the form CC(P)nCC]
binding of tag to Cy3 and Cy5 (bis-sulfonato) bis-propionamido-phenylarsine derivatives [7]: bind
interaction of tag with FlAsH-EDT2 [8]: not interact substantially

CCPPPPCC (target sequence) [tetracysteine peptide tag of the form CC(P)nCC]
binding of tag to Cy3 and Cy5 (bis-sulfonato) bis-propionamido-phenylarsine derivatives [7]: bind
interaction of tag with FlAsH-EDT2 [8]: not interact substantially

CCPPPPPCC (target sequence) [tetracysteine peptide tag of the form CC(P)nCC]
binding of tag to Cy3 and Cy5 (bis-sulfonato) bis-propionamido-phenylarsine derivatives [7]: bind
interaction of tag with FlAsH-EDT2 [8]: not interact substantially

CCPPPPPPCC (target sequence) [tetracysteine peptide tag of the form CC(P)nCC]
binding of tag to Cy3 and Cy5 (bis-sulfonato) bis-propionamido-phenylarsine derivatives [7]: bind
interaction of tag with FlAsH-EDT2 [8]: not interact substantially

CGCGCGC (not fully specified (N-terminus, C-terminus); cysteine pairing not given here) [Ac—WNCGCGCGCN—CONH2, tag CGCGCGC; tested as the set A peptide that holds it]
binding of tag to Cy5 bis-sulfonato bis-propionamido-phenylarsine or Cy5 bis-propionamido-phenylarsine [5]: bind
interaction of tag with FlAsH-EDT2 [8]: do not interact substantially

CGPCCGPC [Ac—WNCGPCCGPCN—CONH2]
binding of tag to Cy5 bis-sulfonato bis-propionamido-phenylarsine or Cy5 bis-propionamido-phenylarsine [5]: bind
interaction of tag with FlAsH-EDT2 [8]: do not interact substantially

α-CCPPPCC—PPPPPPPPP—CCGCCN [α-SARP-P3/G1-PP9]
specificity of co-labeling and FRET-dependent detection (other proteins labeled) [9]: no other protein in the crude lysate was detectably labeled
FlAsH-Cy5 FRET within the resulting complex (SARP detection) [9]: participated in FlAsH-Cy5 FRET
co-labeling by FlAsH and Cy5-(SO3)2-(PAEDT)2 [9]: co-labeled

α-CCPPPPCC—PPPPPPPPP—CCGCCN [α-SARP-P4/G1-PP9]
specificity of co-labeling and FRET-dependent detection (other proteins labeled) [9]: no other protein in the crude lysate was detectably labeled
FlAsH-Cy5 FRET within the resulting complex (SARP detection) [9]: participated in FlAsH-Cy5 FRET
co-labeling by FlAsH and Cy5-(SO3)2-(PAEDT)2 [9]: co-labeled
